The values that follow come from patent US20100209345A1, “Fluorinated Ligands for Targeting Peripheral Benzodiazepine Receptors” (Australian Nuclear Science & Technology Organisation, priority 2006, published 2010).

Like-named read-outs stand apart in the source and are kept apart here.

Data set [1] can be described thus: LogP HPLC.
Data set [2] concerns the target central benzodiazepine receptors. Put plainly: In vitro binding, [3H]-Flumazenil, brain cortex membrane preparation. The conditions noted are these: for IC50: [3H]-Flumazenil (2 nM), 25° C., 45 min, read-out: CBR IC50; for CBR, % @ 10^−5M: [3H]-Flumazenil. The protocol: (§1) Non-specific binding was determined with Flumazenil (20 μM). In both cases, incubations were terminated by rapid filtration through Whatman GF/B glass fibre. Filters were immediately washed 3 times with 5 mL ice-cold 50 mM Tris/HCl at pH 7.4. Filters were counted in a β-scintillation counter (Packard) to measure the amount of bound radioactivity. The IC50 of the compounds for the peripheral benzodiazepine binding site and the central benzodiazepine receptor were calculated using Kell 6 software.

Data set [3] deals with T1, peripheral benzodiazepine binding site (Rattus norvegicus, UniProt P16257).
T1 construct: diluted kidney membrane preparation (200 μg); from tissue; host or cells: kidney membrane preparation
Put plainly: In vitro binding, [3H]-PK11195, kidney membrane preparation. The conditions noted are these: [3H]-PK11195 (2 nM), 4° C., 1 h. Here is the method: Non-specific binding was determined with PK11195 (10 μM).
as §1

The target in data set [4] is T2, peripheral benzodiazepine receptors (Rattus norvegicus, UniProt P16257).
T2 construct: high uptake in the tissues which have known PBR sites; from tissue; host or cells: organs of living SD rats (brain and peripheral tissues), in vivo
Put plainly: In vivo blocking / competition of tracer uptake by pre-treatment with PBR and CBR ligands. The conditions noted are these: rats. Here is the method:
The criteria for significance were **p<0.01 (highly significant) and *p<0.05 (significant). No stars implies not statistical difference from normals or controls.
The biodistribution of PBR132* was undertaken in SD rats and analysis up to 4 h p.i. in the brain and peripheral tissues was performed. The specificity and selectivity of the tracer were assessed by pre-treatment with PBR and Central benzodiazepine receptor (CBR) specific ligands (1 mg/kg) 5 min prior to injection of PBR132*.
The biodistribution of PBR 147* was performed in SD rats and brain and peripheral tissues were analysised at 15, 30 min, 1, and 4 h p.i. The specificity and selectivity of the tracer was assessed by pre-treatment of the animals with the PBR ligands PK11195 and Ro 5-4864 and with Flumazenil for CBR at 1 mg/kg 5 min prior to injection of PBR 147*
The biodistribution of PBR102* and PBR111* were performed in SD rats and brain and peripheral tissues analysed at 15, 30 min, 1, and 4 h p.i. The specificity and selectivity of the tracers were assessed by pre-treatment with the PBR ligands PK11195 and Ro 5-4864 and with Flumazenil for CBR at 1 mg/kg 5 min prior to injection of the corresponding tracers.
The specificity and selectivity of the tracers were assessed by pre-treatment with the PBR ligands PK11195 and Ro 5-4864 and with Flumazenil for CBR at 1 mg/kg 5 min prior to injection of the corresponding tracers.

Data set [5] can be described thus: Biodistribution of 18F-labelled tracers in rats. It counts as in vivo. The conditions noted are these: SD rats; for Biodistribution: Bone / Biodistribution: Kidney / Biodistribution: Olfactory bulbs / Biodistribution: Adrenals: decay correction not stated. Put shortly: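 Sprague-Dawley rats received 18F tracer, and brain and peripheral tissues were analysed at 15 and 30 min and 1 and 4 h post-injection. For specificity, rats were pretreated 5 min beforehand with PK11195 or Ro 5-4864 (PBR) or flumazenil (CBR), each at 1 mg/kg.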

On to `CCN(CC)C(=O)Cc1c(-c2ccc(OCCCCF)cc2)nc2ccc(Cl)cn12` [PBR 120, 2-(2-(4-(4-fluorobutoxy)phenyl)-6-chloroimidazo[1,2-a]pyridin-3-yl)-N,N-diethylacetamide], for which, in data set [1], the chromatographic logP (usually a lipophilicity value derived from retention on a column) was 3.53 ± 0.11. Also, the values for the IC50 in data set [2] and in data set [3] (PBR IC50 (nM)) were 0.942 µM and 35 nM, respectively.
`CCN(CC)C(=O)Cc1c(-c2ccc(OCCCF)cc2)nc2c(Cl)cc(Cl)cn12` [PBR 130, 2-(2-(4-(3-fluoropropoxy)phenyl)-6,8-dichloroimidazo[1,2-a]pyridin-3-yl)-N,N-diethylacetamide] yielded a chromatographic logP in data set [1] of 3.43 ± 0.1. Further, the “CBR, % @ 10^−5M” value in data set [2] stood at 50% @ 10^−5M. Also, the values for the IC50 in data set [2] and in data set [3] (PBR IC50 (nM)) were greater than 5 µM and 20 nM, respectively.
The compound `CCN(CC)C(=O)Cc1c(-c2ccc(C(C)(C)C)cc2)nc2ccc(F)nn12` [PBR 132, 2-(2-(4-tert-butylphenyl)-6-fluoroimidazo[1,2-b]pyridazin-3-yl)-N,N-diethylacetamide] came in with a chromatographic logP in data set [1] of 3.6 ± 0.11. In addition, the IC50 (as a rule, the concentration at which inhibition is half-maximal) was determined as 0.343 µM in data set [2] and 38 nM in data set [3] (PBR IC50 (nM)).
The corresponding values for `CCN(CC)C(=O)Cc1c(-c2ccc(OCCF)cc2)nc2c(Cl)cc(Cl)cn12` [PBR 136, 2-(2-(4-(2-fluoroethoxy)phenyl)-6,8-dichloroimidazo[1,2-a]pyridin-3-yl)-N,N-diethylacetamide] are 2.99 ± 0.09, 0.588 µM and 17.6 nM.
Regarding `CC(C)(C)c1ccc(-c2nc3ccc(F)nn3c2CNC(=O)c2ccccc2)cc1` [PBR 139, N-((2-(4-tert-butylphenyl)-6-fluoroimidazo[1,2-b]pyridazin-3-yl)methyl)benzamide], the chromatographic logP in data set [1] was 4.23 ± 0.13. The IC50 in data set [2] was 2.62 µM; in data set [3] (read-out: PBR IC50), 800 nM.
For the compound `CN(C(=O)Cc1c(-c2ccc(OCCF)cc2)nc2c(Cl)cc(Cl)cn12)c1ccccc1` [PBR 143, 2-(2-(4-(2-fluoroethoxy)phenyl)-6,8-dichloroimidazo[1,2-a]pyridin-3-yl)-N-methyl-N-phenylacetamide], in data set [1], the chromatographic logP was determined as 3.85 ± 0.12. The “CBR, % @ 10^−5M” value in data set [2] was 50% @ 10^−5M. Moreover, the IC50 in data set [3] (PBR IC50 (nM)) turned out to be 6.4 nM.
Compound `CN(C(=O)Cc1c(-c2ccc(OCCCF)cc2)nc2c(Cl)cc(Cl)cn12)c1ccccc1` [PBR 147, 2-(2-(4-(3-fluoropropoxy)phenyl)-6,8-dichloroimidazo[1,2-a]pyridin-3-yl)-N-methyl-N-phenylacetamide] came in with a chromatographic logP in data set [1] of 4.31 ± 0.13. Further, in data set [2], the IC50 was determined as 4.09 µM. Also, the “Tracer uptake after pre-treatment with PK 11195” value in data set [4] (PK 11195 1 mg/kg 5 min prior to tracer, PBR-expressing tissues (brain/peripheral organs, adrenals apart)) is “decreased”. In addition, in data set [4] (PK 11195 1 mg/kg 5 min prior to tracer, adrenals), the “Tracer uptake in the adrenals after pre-treatment with PK 11195” value is “increase”. Moreover, the “Tracer uptake after pre-treatment with Ro 5-4864” value in data set [4] (Ro 5-4864 1 mg/kg 5 min prior to tracer, PBR-expressing tissues (brain/peripheral organs, adrenals apart)) is given as “decreased”. Besides, the “Tracer uptake in the adrenals after pre-treatment with Ro 5-4864” value in data set [4] (Ro 5-4864 1 mg/kg 5 min prior to tracer, adrenals) was “increase”. Moreover, in data set [4] (flumazenil 1 mg/kg 5 min prior to tracer, brain or peripheral organs), the “Tracer uptake after pre-treatment with flumazenil (central benzodiazepine ligand)” value is “no effect”. Moreover, in data set [5] (15 min), the “Biodistribution: Bone” value is listed as 1 % ID/g, the “Biodistribution: Kidney” value is on record as 5 % ID/g and the “Biodistribution: Olfactory bulbs” value was 0.66 % ID/g. The “Heart uptake maintained throughout the experiment” value in data set [5] (15 min to 4 h) worked out at 7%. In addition, in data set [5] (30 min), the “Biodistribution: Adrenals” value was 9 % ID/g. Further, in data set [5] (4 hours), the “Biodistribution: Adrenals” value was determined as 11 % ID/g, the “Biodistribution: Bone” value turned out to be 2.9 % ID/g, the “Biodistribution: Kidney” value is 3.6 % ID/g and the “Biodistribution: Olfactory bulbs” value is given as 0.26 % ID/g. Further, in data set [5] (throughout 15 min to 4 h), the “Blood activity level / concentration in the blood over the 4 h study period” value is “significantly lower”. This compound showed an IC50 in data set [3] (PBR IC50 (nM)) of 7.4 nM.
`CN(C(=O)Cc1c(-c2ccc(OCCF)cc2)nc2ccc(Cl)cn12)c1ccccc1` [PBR 149, 2-(2-(4-(2-fluoroethoxy)phenyl)-6-chloroimidazo[1,2-a]pyridin-3-yl)-N-methyl-N-phenylacetamide]: the chromatographic logP in data set [1] was found to be 3.57 ± 0.11. Further, the IC50 in data set [2] was determined as 0.357 µM; in data set [3] (PBR IC50 (nM)), 4.7 nM.
